{"source": "paper PMC5218480", "about": "(PLoS ONE, 2017)", "tested_on": "MV-4-11 cells", "test": "Gene expression microarray analysis (Affymetrix PrimeView) and GSEA", "format": "cell-based, human", "parameters": "RFU PODN (11730768_x_at) / Fold change /veh PODN (11730768_x_at) / RFU LINC00158 (11744669_a_at) / Fold change /veh LINC00158 (11744669_a_at) / RFU DUSP10 (11751237_a_at) / Fold change /veh DUSP10 (11751237_a_at) / RFU ID3 (11757404_x_at) / Fold change /veh ID3 (11757404_x_at) / RFU PLEKHG5 (11737974_s_at) / Fold change /veh PLEKHG5 (11737974_s_at) / RFU LRRC4B (11730491_at) / Fold change /veh LRRC4B (11730491_at) / RFU GIMAP4 (11747438_a_at) / Fold change /veh GIMAP4 (11747438_a_at) / RFU KRT8 (11758183_x_at) / Fold change /veh KRT8 (11758183_x_at) / RFU CNN1 (11734310_a_at) / Fold change /veh CNN1 (11734310_a_at) / RFU VPS37D (11726825_at) / Fold change /veh VPS37D (11726825_at) / RFU C10orf10 (11716522_x_at) / Fold change /veh C10orf10 (11716522_x_at) / RFU KIR2DL2 /// KIR2DL4 /// KIR2DL5A /// KIR2DL5B /// KIR2DS1 /// KIR2DS2 /// KIR2DS3 /// KIR2DS4 /// KIR3DL3 /// KIR3DL3 /// KIR3DS1 (11738374_at) / Fold change /veh KIR2DL2 /// KIR2DL4 /// KIR2DL5A /// KIR2DL5B /// KIR2DS1 /// KIR2DS2 /// KIR2DS3 /// KIR2DS4 /// KIR3DL3 /// KIR3DL3 /// KIR3DS1 (11738374_at) / RFU C1QL1 (11718748_at) / Fold change /veh C1QL1 (11718748_at) / RFU TMPRSS4 (11747572_a_at) / Fold change /veh TMPRSS4 (11747572_a_at) / RFU HAMP (11756126_x_at) / Fold change /veh HAMP (11756126_x_at) / RFU RNFT2 (11725882_a_at) / Fold change /veh RNFT2 (11725882_a_at) / RFU NR4A2 (11747474_a_at) / Fold change /veh NR4A2 (11747474_a_at) / RFU ABCC12 (11746883_a_at) / Fold change /veh ABCC12 (11746883_a_at) / RFU TMEM136 (11760407_x_at) / Fold change /veh TMEM136 (11760407_x_at) / RFU CLDN22 /// WWC2 (11732394_at) / Fold change /veh CLDN22 /// WWC2 (11732394_at) / RFU HLA-DPB1 (11760878_x_at) / Fold change /veh HLA-DPB1 (11760878_x_at) / RFU SPINT1 (11716480_a_at) / Fold change /veh SPINT1 (11716480_a_at) / RFU GAP43 (11754022_s_at) / Fold change /veh GAP43 (11754022_s_at) / RFU A4GNT (11735810_at) / Fold change /veh A4GNT (11735810_at) / RFU PRB3 (11715151_x_at) / Fold change /veh PRB3 (11715151_x_at) / RFU TUBB4B (11761932_at) / Fold change /veh TUBB4B (11761932_at) / RFU CAPN14 (11732068_a_at) / Fold change /veh CAPN14 (11732068_a_at) / RFU TMCC2 (11721928_a_at) / Fold change /veh TMCC2 (11721928_a_at) / RFU IRGQ (11745062_a_at) / Fold change /veh IRGQ (11745062_a_at) / RFU FAM174B (11720279_a_at) / Fold change /veh FAM174B (11720279_a_at) / RFU TMPRSS4 (11748680_a_at) / Fold change /veh TMPRSS4 (11748680_a_at) / RFU FAM212B (11763350_a_at) / Fold change /veh FAM212B (11763350_a_at) / RFU PLEKHG5 (11743358_a_at) / Fold change /veh PLEKHG5 (11743358_a_at) / RFU ZSCAN30 (11745921_a_at) / Fold change /veh ZSCAN30 (11745921_a_at) / RFU CMKLR1 (11741424_a_at) / Fold change /veh CMKLR1 (11741424_a_at) / RFU LOC101060620 /// MAPK8IP1 (11723275_at) / Fold change /veh LOC101060620 /// MAPK8IP1 (11723275_at) / RFU SPTSSB (11747773_x_at) / Fold change /veh SPTSSB (11747773_x_at) / RFU PRSS12 (11739890_at) / Fold change /veh PRSS12 (11739890_at) / RFU BIN1 (11741810_x_at) / Fold change /veh BIN1 (11741810_x_at) / RFU WNT11 (11732464_a_at) / Fold change /veh WNT11 (11732464_a_at) / RFU C10orf10 (11716521_a_at) / Fold change /veh C10orf10 (11716521_a_at) / RFU C5orf56 (11738089_at) / Fold change /veh C5orf56 (11738089_at) / RFU CYB561 (11721691_x_at) / Fold change /veh CYB561 (11721691_x_at) / RFU ANKRD19P (11752326_a_at) / Fold change /veh ANKRD19P (11752326_a_at) / RFU OR2T12 /// OR2T33 /// OR2T8 (11738714_s_at) / Fold change /veh OR2T12 /// OR2T33 /// OR2T8 (11738714_s_at) / RFU VCAN (11748164_a_at) / Fold change /veh VCAN (11748164_a_at) / RFU JSRP1 (11732532_at) / Fold change /veh JSRP1 (11732532_at) / RFU KRTAP10-11 (11738290_x_at) / Fold change /veh KRTAP10-11 (11738290_x_at) / RFU MYO3A (11730013_a_at) / Fold change /veh MYO3A (11730013_a_at) / RFU EBF3 (11725865_a_at) / Fold change /veh EBF3 (11725865_a_at) / RFU CAMK2N1 (11719241_x_at) / Fold change /veh CAMK2N1 (11719241_x_at) / RFU C5orf56 (11738088_a_at) / Fold change /veh C5orf56 (11738088_a_at) / RFU OLFML3 (11715873_a_at) / Fold change /veh OLFML3 (11715873_a_at) / RFU LOC100653217 /// NTM (11731650_a_at) / Fold change /veh LOC100653217 /// NTM (11731650_a_at) / RFU MAPK11 (11762145_a_at) / Fold change /veh MAPK11 (11762145_a_at) / RFU FIZ1 (11724087_x_at) / Fold change /veh FIZ1 (11724087_x_at) / RFU OASL (11726364_x_at) / Fold change /veh OASL (11726364_x_at) / RFU SOX15 (11748057_x_at) / Fold change /veh SOX15 (11748057_x_at) / RFU CD79A (11719716_a_at) / Fold change /veh CD79A (11719716_a_at) / RFU HIST1H1D (11736915_at) / Fold change /veh HIST1H1D (11736915_at) / RFU CASKIN2 (11723855_a_at) / Fold change /veh CASKIN2 (11723855_a_at) / RFU LOC730098 (11760151_x_at) / Fold change /veh LOC730098 (11760151_x_at) / RFU OR4N2 (11742367_at) / Fold change /veh OR4N2 (11742367_at) / RFU PRRT2 (11749266_a_at) / Fold change /veh PRRT2 (11749266_a_at) / RFU SNX32 (11753110_a_at) / Fold change /veh SNX32 (11753110_a_at) / RFU CDHR5 (11726645_a_at) / Fold change /veh CDHR5 (11726645_a_at) / RFU RCAN1 (11760418_a_at) / Fold change /veh RCAN1 (11760418_a_at) / RFU FAM167A (11723789_a_at) / Fold change /veh FAM167A (11723789_a_at) / RFU FAM26E (11764081_at) / Fold change /veh FAM26E (11764081_at) / RFU ISYNA1 (11749810_s_at) / Fold change /veh ISYNA1 (11749810_s_at) / RFU ACY1 (11761880_at) / Fold change /veh ACY1 (11761880_at) / RFU 11764098_at / Fold change /veh 11764098_at / RFU SAMD14 (11745864_x_at) / Fold change /veh SAMD14 (11745864_x_at) / RFU NPB (11741838_a_at) / Fold change /veh NPB (11741838_a_at) / RFU TMPRSS6 (11731388_a_at) / Fold change /veh TMPRSS6 (11731388_a_at) / RFU KRTAP10-2 (11738614_at) / Fold change /veh KRTAP10-2 (11738614_at) / RFU ARHGAP8 /// PRR5-ARHGAP8 (11727945_x_at) / Fold change /veh ARHGAP8 /// PRR5-ARHGAP8 (11727945_x_at) / RFU KRTAP5-7 /// NADSYN1 (11734609_at) / Fold change /veh KRTAP5-7 /// NADSYN1 (11734609_at) / RFU RASL12 (11751679_a_at) / Fold change /veh RASL12 (11751679_a_at) / RFU CDKN2B (11736163_a_at) / Fold change /veh CDKN2B (11736163_a_at) / RFU PRF1 (11729649_at) / Fold change /veh PRF1 (11729649_at) / RFU, ZNF638 /// ZNF638-IT1 / Fold change vs veh, ZNF638 /// ZNF638-IT1 / RFU, PANK3 / Fold change vs veh, PANK3 / RFU, SH3YL1 / Fold change vs veh, SH3YL1 / RFU, ZEB2 / Fold change vs veh, ZEB2 / RFU, NRIP1 / Fold change vs veh, NRIP1 / RFU, PTTG1IP / Fold change vs veh, PTTG1IP / RFU, CAPN2 / Fold change vs veh, CAPN2 / RFU, MED14 / Fold change vs veh, MED14 / RFU, SNORA58 / Fold change vs veh, SNORA58 / RFU, C1orf63 / Fold change vs veh, C1orf63 / RFU, LRRFIP1 / Fold change vs veh, LRRFIP1 / RFU, NDUFAF7 / Fold change vs veh, NDUFAF7 / RFU, SLC12A2 / Fold change vs veh, SLC12A2 / RFU, IBTK / Fold change vs veh, IBTK / RFU, ESF1 / Fold change vs veh, ESF1 / Fold change vs veh, TMEM50B / RFU, TAOK1 / Fold change vs veh, TAOK1 / RFU, ACBD3 / Fold change vs veh, ACBD3 / RFU, TMA16 / Fold change vs veh, TMA16 / RFU, RWDD3 / Fold change vs veh, RWDD3 / RFU, BCAT1 / Fold change vs veh, BCAT1 / RFU, EDEM3 / Fold change vs veh, EDEM3 / RFU, TMEM33 / Fold change vs veh, TMEM33 / RFU, WDR75 / Fold change vs veh, WDR75 / RFU, AHCTF1 / Fold change vs veh, AHCTF1 / RFU, TFRC / Fold change vs veh, TFRC / RFU, ZDHHC17 / Fold change vs veh, ZDHHC17 / RFU, NOM1 / Fold change vs veh, NOM1 / RFU, ARL8B / Fold change vs veh, ARL8B / RFU, ZBTB11 / Fold change vs veh, ZBTB11 / RFU, TAMM41 / Fold change vs veh, TAMM41 / RFU, KIAA1704 /// LOC100996395 / Fold change vs veh, KIAA1704 /// LOC100996395 / RFU, ING1 / Fold change vs veh, ING1 / RFU, TRMT61B / Fold change vs veh, TRMT61B / RFU, FUBP3 / Fold change vs veh, FUBP3 / RFU, TP53 / Fold change vs veh, TP53 / RFU, TNKS2 / Fold change vs veh, TNKS2 / RFU, ZFP14 / Fold change vs veh, ZFP14 / RFU, ACTR2 / Fold change vs veh, ACTR2 / RFU, PPP3R1 / Fold change vs veh, PPP3R1 / RFU, PIK3R1 / Fold change vs veh, PIK3R1 / RFU, HNRNPA1 / Fold change vs veh, HNRNPA1 / RFU, RNF170 / Fold change vs veh, RNF170 / RFU, ZNF28 / Fold change vs veh, ZNF28 / RFU, RNGTT / Fold change vs veh, RNGTT / RFU, OGT / Fold change vs veh, OGT / RFU, BRD1 / Fold change vs veh, BRD1 / RFU, MARS / Fold change vs veh, MARS / RFU, ZNF655 / Fold change vs veh, ZNF655 / RFU, FAHD1 / Fold change vs veh, FAHD1 / RFU, BDP1 / Fold change vs veh, BDP1 / RFU, LRRCC1 / Fold change vs veh, LRRCC1 / RFU, ARID1A / Fold change vs veh, ARID1A / RFU, ZNF146 / Fold change vs veh, ZNF146 / RFU, ZNF330 / Fold change vs veh, ZNF330 / RFU, GPN3 / Fold change vs veh, GPN3 / RFU, C9orf123 / Fold change vs veh, C9orf123 / RFU, N4BP2L2 / Fold change vs veh, N4BP2L2 / RFU, ARFIP1 / Fold change vs veh, ARFIP1 / RFU, FAM179B / Fold change vs veh, FAM179B / RFU, BCL10 / Fold change vs veh, BCL10 / RFU, UHRF1BP1L / Fold change vs veh, UHRF1BP1L / RFU, BET1 / Fold change vs veh, BET1 / RFU, CNOT2 / Fold change vs veh, CNOT2 / RFU, ZNF268 / Fold change vs veh, ZNF268 / Fold change vs veh, ZNF507 / RFU, DGCR2 / Fold change vs veh, DGCR2 / RFU, WDSUB1 / Fold change vs veh, WDSUB1 / Fold change vs veh, HSP90B1 /// MIR3652 / RFU, ADSS / Fold change vs veh, ADSS / RFU, GK / Fold change vs veh, GK / RFU, ZNF148 / Fold change vs veh, ZNF148 / RFU, TAF9 / Fold change vs veh, TAF9 / RFU, SLC1A5 / Fold change vs veh, SLC1A5 / RFU, SLMO2 / Fold change vs veh, SLMO2 / RFU, ABCC4 / Fold change vs veh, ABCC4 / RFU, LOC101060439 /// RAP1B / Fold change vs veh, LOC101060439 /// RAP1B / RFU, RFX7 / Fold change vs veh, RFX7 / RFU, GTPBP10 / Fold change vs veh, GTPBP10 / RFU, CNEP1R1 / Fold change vs veh, CNEP1R1 / RFU, BIVM-ERCC5 /// ERCC5 / Fold change vs veh, BIVM-ERCC5 /// ERCC5 / RFU, ILF3 / Fold change vs veh, ILF3 / RFU 11762660_at / Fold change /veh 11762660_at / RFU VCAN (11757783_s_at) / Fold change /veh VCAN (11757783_s_at) / RFU DDX43 (11728927_at) / Fold change /veh DDX43 (11728927_at) / RFU KRT8 (11758188_x_at) / Fold change /veh KRT8 (11758188_x_at) / RFU NKD1 (11759106_at) / Fold change /veh NKD1 (11759106_at) / RFU SRD5A1 (11742802_a_at) / Fold change /veh SRD5A1 (11742802_a_at) / RFU TPSAB1 /// TPSB2 (11721975_s_at) / Fold change /veh TPSAB1 /// TPSB2 (11721975_s_at) / RFU GSTM3 (11746129_a_at) / Fold change /veh GSTM3 (11746129_a_at) / RFU IL23R (11737362_x_at) / Fold change /veh IL23R (11737362_x_at) / RFU TMEM51 (11727254_a_at) / Fold change /veh TMEM51 (11727254_a_at) / RFU PIWIL2 (11732686_x_at) / Fold change /veh PIWIL2 (11732686_x_at) / RFU ORM1 (11744905_x_at) / Fold change /veh ORM1 (11744905_x_at) / RFU CCDC152 (11743942_at) / Fold change /veh CCDC152 (11743942_at) / RFU ECM1 (11717891_a_at) / Fold change /veh ECM1 (11717891_a_at) / RFU IL23R (11748794_a_at) / Fold change /veh IL23R (11748794_a_at) / RFU TNFAIP8L3 (11732012_x_at) / Fold change /veh TNFAIP8L3 (11732012_x_at) / RFU MBOAT4 (11741988_at) / Fold change /veh MBOAT4 (11741988_at) / RFU 11764193_at / Fold change /veh 11764193_at / RFU TMEM53 (11763286_at) / Fold change /veh TMEM53 (11763286_at) / RFU MAGEB2 (11727129_at) / Fold change /veh MAGEB2 (11727129_at) / RFU TMEM200A (11744735_a_at) / Fold change /veh TMEM200A (11744735_a_at) / RFU CCDC152 (11751479_a_at) / Fold change /veh CCDC152 (11751479_a_at) / RFU FAM211A (11726209_a_at) / Fold change /veh FAM211A (11726209_a_at) / RFU RGS16 (11746705_a_at) / Fold change /veh RGS16 (11746705_a_at) / RFU VCAN (11755009_s_at) / Fold change /veh VCAN (11755009_s_at) / RFU RHOB (11743442_s_at) / Fold change /veh RHOB (11743442_s_at) / RFU RGS16 (11720943_a_at) / Fold change /veh RGS16 (11720943_a_at) / RFU RGS16 (11720944_at) / Fold change /veh RGS16 (11720944_at) / RFU, VPS4B / Fold change vs veh, VPS4B / RFU, CREB1 / Fold change vs veh, CREB1 / RFU, DNAJC13 / Fold change vs veh, DNAJC13 / RFU, GNAQ / Fold change vs veh, GNAQ / RFU, CDK5R1 / Fold change vs veh, CDK5R1 / RFU, ZRANB3 / Fold change vs veh, ZRANB3 / RFU, CUL4A / Fold change vs veh, CUL4A / RFU, CCNY / Fold change vs veh, CCNY / RFU, UFL1 / Fold change vs veh, UFL1 / RFU, COG3 / Fold change vs veh, COG3 / RFU, DIAPH2 / Fold change vs veh, DIAPH2 / RFU, SKA2 / Fold change vs veh, SKA2 / RFU, AFF3 / Fold change vs veh, AFF3 / RFU, LMF1 / Fold change vs veh, LMF1 / RFU, IPO11 / Fold change vs veh, IPO11 / RFU, DFFB / Fold change vs veh, DFFB / RFU, FOXP1 / Fold change vs veh, FOXP1 / RFU, CARD8 / Fold change vs veh, CARD8 / RFU, STRN3 / Fold change vs veh, STRN3 / RFU, ADK / Fold change vs veh, ADK / RFU, RASSF2 / Fold change vs veh, RASSF2 / RFU, WIPF1 / Fold change vs veh, WIPF1 / RFU, LARP1B / Fold change vs veh, LARP1B / RFU, RASA1 / Fold change vs veh, RASA1 / RFU, RB1 / Fold change vs veh, RB1 / RFU, PPFIA1 / Fold change vs veh, PPFIA1 / RFU, MAT2A / Fold change vs veh, MAT2A / RFU, CCT5 / Fold change vs veh, CCT5 / RFU, WDR92 / Fold change vs veh, WDR92 / RFU, CUX1 / Fold change vs veh, CUX1 / RFU, TTC7A / Fold change vs veh, TTC7A / RFU, TMEM135 / Fold change vs veh, TMEM135 / RFU, DEPTOR / Fold change vs veh, DEPTOR / RFU, CPM / Fold change vs veh, CPM / RFU, DNAJB6 / Fold change vs veh, DNAJB6 / RFU, CACNA2D3 / Fold change vs veh, CACNA2D3 / RFU, DTX4 / Fold change vs veh, DTX4 / RFU, TFCP2 / Fold change vs veh, TFCP2 / RFU, GMCL1 /// GMCL1P1 / Fold change vs veh, GMCL1 /// GMCL1P1 / RFU, AEBP2 / Fold change vs veh, AEBP2 / RFU, SNHG1 /// SNORD22 /// SNORD25 /// SNORD26 /// SNORD27 /// SNORD28 /// SNORD29 /// SNORD31 / Fold change vs veh, SNHG1 /// SNORD22 /// SNORD25 /// SNORD26 /// SNORD27 /// SNORD28 /// SNORD29 /// SNORD31 / Fold change (Aza/veh), C12orf56 (ProbeSet 11735607_a_at) / Fold change (ACY-1035/veh), C12orf56 (ProbeSet 11735607_a_at) / Fold change (Aza/veh), FGFR1OP (ProbeSet 11751329_s_at) / Fold change (ACY-1035/veh), FGFR1OP (ProbeSet 11751329_s_at) / Fold change (Aza/veh), VPS36 (ProbeSet 11739960_a_at) / Fold change (ACY-1035/veh), VPS36 (ProbeSet 11739960_a_at) / RFU SYPL1 (11715823_x_at) / Fold change /veh SYPL1 (11715823_x_at) / RFU IGFBP7 (11715501_s_at) / Fold change /veh IGFBP7 (11715501_s_at) / RFU REEP3 (11722064_at) / Fold change /veh REEP3 (11722064_at) / RFU IGLL1 (11728026_x_at) / Fold change /veh IGLL1 (11728026_x_at): dose or concentration left out as unconfirmed", "conditions": "MV-4-11 cells, 48 hours", "data": [{"smiles": "Nc1ncn([C@@H]2O[C@H](CO)[C@@H](O)[C@H]2O)c(=O)n1", "note": "[azacitidine]", "values": [{"measurement": "RFU SPTSSB (11747773_x_at)", "result": 34.53, "unit": "RFU"}]}]}
